“Also recorded” adds a separate entry of the source.
Key:
AChE [1] = molecular target: T1, AChE (Rattus norvegicus, UniProt P37136); experiment: In vitro AChE activity in rat hippocampus homogenate; assay type: biochemical
T1 sequence (P37136 32-614): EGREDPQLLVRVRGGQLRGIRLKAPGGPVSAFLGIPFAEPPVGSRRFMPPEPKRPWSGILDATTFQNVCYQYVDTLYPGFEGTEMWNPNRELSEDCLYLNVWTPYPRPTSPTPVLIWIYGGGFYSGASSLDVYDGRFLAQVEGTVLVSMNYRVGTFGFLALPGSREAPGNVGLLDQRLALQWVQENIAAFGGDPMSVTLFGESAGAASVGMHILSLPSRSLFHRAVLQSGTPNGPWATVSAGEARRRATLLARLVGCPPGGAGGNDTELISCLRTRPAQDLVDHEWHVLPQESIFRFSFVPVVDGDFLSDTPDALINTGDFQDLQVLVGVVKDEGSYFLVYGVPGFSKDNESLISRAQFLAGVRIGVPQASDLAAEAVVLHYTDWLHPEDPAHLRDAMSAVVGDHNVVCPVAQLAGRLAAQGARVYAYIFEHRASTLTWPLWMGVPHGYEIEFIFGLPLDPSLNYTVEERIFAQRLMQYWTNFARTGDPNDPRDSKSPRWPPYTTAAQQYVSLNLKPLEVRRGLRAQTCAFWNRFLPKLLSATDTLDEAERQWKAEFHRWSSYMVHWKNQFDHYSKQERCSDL

AChE [2] = molecular target: T1, AChE; experiment: In vitro AChE activity in rat cerebral cortex homogenate; assay type: biochemical; conditions: read-out: inhibition of AChE activity
MRC-5 (human fibroblast) = experiment: Cytotoxicity in fibroblast culture by SRB test; assay type: cell-based; conditions: 24 h
[3] = read-out: inhibition of AChE activity

Row | Structure (SMILES) | IC50 (AChE [1]) [µM] | inhibition at 100 µM (AChE [1]; [3]) [%] | inhibition at 10 µM (AChE [2]) [%] | cytotoxicity (cell proliferation vs DMSO control) (MRC-5 (human fibroblast); 100 µM) | inhibition at 50 µM (AChE [1]; [3]) [%] | cytotoxicity in human fibroblast cell (overall statement) (MRC-5 (human fibroblast)) | cytotoxicity (cell proliferation vs DMSO control) (MRC-5 (human fibroblast); 50 µM (lowest concentration tested))
1 | O=C1c2ccccc2SC(c2ccc([N+](=O)[O-])cc2)N1CCN1CCOCC1 (stereo not drawn) [5Ad, 3-(2-morpholinoethyl)-2-(4-nitrophenyl)-2,3-dihydro-4H-benzo[e][1,3]thiazin-4-one] | 70.6 | 46.4 | – | – | – | – | –
2 | CCCCC1Sc2ccccc2C(=O)N1CCCN1CCCCC1 (stereo not drawn) [5Ba, 2-butyl-3-(3-(piperidin-1-yl)propyl)-2,3-dihydro-4H-benzo[e][1,3]thiazin-4-one] | 73.3 | 46.2 | 27.1 | noncytotoxic | – | – | –
3 | O=C1c2ccccc2SC(c2ccccc2)N1CCCN1CCCCC1 (stereo not drawn) [5Bb, 2-phenyl-3-(3-(piperidin-1-yl)propyl)-2,3-dihydro-4H-benzo[e][1,3]thiazin-4-one] | 39.8 | – | 47.2 | – | 50 | – | –
4 | O=C1c2ccccc2SC(c2ccc([N+](=O)[O-])cc2)N1CCCN1CCCCC1 (stereo not drawn) [5Bd, 2-(4-nitrophenyl)-3-(3-(piperidin-1-yl)propyl)-2,3-dihydro-4H-benzo[e] [1,3]thiazin-4-one] | 39.8 | – | – | no cytotoxicity; also recorded: noncytotoxic | – | low cytotoxicity | –
5 | O=C1c2ccccc2SC(c2ccc(F)cc2)N1CCCN1CCCCC1 (stereo not drawn) [5Bf, 2-(4-fluorophenyl)-3-(3-(piperidin-1-yl)propyl)-2,3-dihydro-4H-benzo[e][1,3]thiazin-4-one] | 61.7 | – | – | – | – | – | –
6 | O=C1c2ccccc2SC(c2ccc([N+](=O)[O-])cc2)N1CCN1CCCCC1 (stereo not drawn) [5Cd, 2-(4-nitrophenyl)-3-(2-(piperidin-1-yl)ethyl)-2,3-dihydro-4H-benzo[e] [1,3]thiazin-4-one] | 119 | – | – | – | – | – | showed toxicity

Reference: article PMC6263113 (Journal of Enzyme Inhibition and Medicinal Chemistry, 2018)
